Values quoted from earlier work as cited in PubChem BioAssay AID1259409 (Chemical Carcinogenesis Research Information System (CCRIS), 2018).

System: rodent chemically induced tumor inhibition, incidence and multiplicity
Test: CCRIS tumor inhibitor studies
Settings: Carcinogen: DIETHYLNITROSAMINE, 55-18-5, N-METHYL-N-NITROSOUREA, 684-93-5, N-BUTYL-N-(4-HYDROXYBUTYL)NITROSAMINE, 3817-11-6, 1,2-DIM, Carcinogen: DIETHYLNITROSAMINE, 55-18-5, N-METHYL-N-NITROSOUREA, 684-93-5, N-BUTYL-N-(4-HYDROXYBUTYL)NITROSAMINE, 3817-11-6, 1,2-DIM, Dose [Inhibitor]: 0, 0.3% IN DIET FOR 23 WK BEGINNING 1 WK POST CARCINOGEN TREATMENT (STUDY DURATION: 28 WK), Route [Inhibitor]: ORAL, Species: RAT, Strain/Sex: F344/MALE, Dose [Carcinogen]: 100 MG/KG BW DEN ONCE, 20 MG/KG BW MNU ONCE ON DAYS 6,9, AND 12, 0.05% BBN IN DRINKING WATER FOR FIRST TWO WK, 40 MG/KG, Dose [Carcinogen]: 100 MG/KG BW DEN ONCE, 20 MG/KG BW MNU ONCE ON DAYS 6,9, AND 12, 0.05% BBN IN DRINKING WATER FOR FIRST TWO WK, 40 MG/KG, Promoter: NONE USED

In the case of `C[C@]12CC[C@H](O)CC1=CC[C@@H]1[C@@H]2CC[C@]2(C)C(=O)CC[C@@H]12`, the “tumour outcome (control, treated, inhibition, significance)” value (Target Tissue: Type of Lesion: LIVER: HEPATOCELLULAR ADENOMA, HYPERPLASTIC NODULES) is given as 2/20 (10%), 15/20 (75%), -650%, p<0.01, the “tumour outcome (control, treated, inhibition, significance)” value (Target Tissue: Type of Lesion: LUNG: ADENOCARCINOMA) is given as 1/20 (5%), 0/20 (0%), 100%, not significant and the “tumour outcome (control, treated, inhibition, significance)” value (Target Tissue: Type of Lesion: LUNG: ADENOMA) is given as 8/20 (40%), 5/20 (25%), 38%, not significant. For the same compound, the outcome (Target Tissue: Type of Lesion: SMALL INTESTINE: ADENOCARCINOMA) was 2/20 (10%), 0/20 (o%), 100%, not significant, the “tumour outcome (control, treated, inhibition, significance)” value (Target Tissue: Type of Lesion: SMALL INTESTINE: ADENOMA) was 5/20 (25%), 2/20 (10%), 60%, not significant and the “tumour outcome (control, treated, inhibition, significance)” value (Target Tissue: Type of Lesion: THYROID: FOLLICULAR ADENOMA) was 6/20 (30%), 1/20 (5%), 83%, p<0.05. For the same compound, the “tumour outcome (control, treated, inhibition, significance)” value (Target Tissue: Type of Lesion: THYROID: FOLLICULAR CARCINOMA) was 1/20 (5%), 2/20 (10%), -100%, not significant.
